Among the data in patent publication US12227496B2 (BRISTOL-MYERS SQUIBB COMPANY, priority 2019, dated 2025) are EC50 values, retold here.

Each structure is given as a SMILES string.

The assay addresses T1, human FXR (Homo sapiens, UniProt Q96RI1).
T1 construct: expressed in transfected cells; host or cells: HEK293 cells stably carrying a 5xGal4-response-element firefly luciferase reporter, transiently transfected with pcDNA3.1-Gal4-FXR
T1 sequence (Q96RI1 262-486 limits assumed): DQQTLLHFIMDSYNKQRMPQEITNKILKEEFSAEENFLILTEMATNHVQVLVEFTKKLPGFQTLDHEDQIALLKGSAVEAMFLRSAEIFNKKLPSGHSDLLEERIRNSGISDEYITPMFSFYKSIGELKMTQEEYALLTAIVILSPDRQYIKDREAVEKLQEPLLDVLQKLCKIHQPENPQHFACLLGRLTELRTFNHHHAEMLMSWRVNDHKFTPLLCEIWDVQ
The assay is described as follows: transient human FXR/Gal4-luciferase reporter assay. Type of assay: cell-based. The conditions noted are these: Gal4-hFXR LBD fusion, luciferase reporter in HEK293 cells; response relative to 8 μM GW-4064. In short, it runs like this: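 HEK293 cells stably carrying a 5×Gal4-response-element firefly luciferase reporter were transiently transfected with Gal4-hFXR. They were then incubated overnight at 37 °C with compound serial dilutions in medium containing 10% charcoal/dextran-stripped FBS. Luminescence was read after Steady-Glo addition.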

Regarding `CC(C)(C)c1noc(C23CCC(CN(C(=O)C4CCC(F)(F)CC4)c4cc(F)cc(-c5nc(C6CC6)no5)c4)(CC2)CC3)n1` [Example 114, N-((4-(3-(tert-butyl)-1,2,4-oxadiazol-5-yl)bicyclo[2.2.2]octan-1-yl)methyl)-N-(3-(3-cyclopropyl-1,2,4-oxadiazol-5-yl)-5-fluorophenyl)-4,4-difluorocyclohexane-1-carboxamide], the EC50 was 325 nM.

On to `CC1CCN(C(=O)N(CC23CCC(c4nc(C5CC5)no4)(CC2)CC3)c2cccc(-c3nc(C4CC4)no3)c2)CC1` [Example 60, N-((4-(3-cyclopropyl-1,2,4-oxadiazol-5-yl)bicyclo[2.2.2]octan-1-yl)methyl)-N-(3-(3-cyclopropyl-1,2,4-oxadiazol-5-yl)phenyl)-4-methylpiperidine-1-carboxamide], for which the EC50 came out at 1020 nM.

In turn, `Cn1nc(C2CC2)cc1C12CCC(CN(C(=O)C3CCS(=O)(=O)CC3)c3cccc(-c4ccc(S(C)(=O)=O)cc4)c3)(CC1)CC2` [Example 135, N-((4-(3-cyclopropyl-1-methyl-1H-pyrazol-5-yl)bicyclo[2.2.2]octan-1-yl)methyl)-N-(4′-(methylsulfonyl)-[1,1′-biphenyl]-3-yl)tetrahydro-2H-thiopyran-4-carboxamide 1,1-dioxide] displayed an EC50 of 4000 nM.

`CCOc1ccnc(-c2cccc(N(CC34CCC(c5nc(C6CC6)no5)(CC3)CC4)C(=O)C3CCCCC3)c2)c1` [Example 77, N-((4-(3-cyclopropyl-1,2,4-oxadiazol-5-yl)bicyclo[2.2.2]octan-1-yl)methyl)-N-(3-(4-ethoxypyridin-2-yl)phenyl)cyclohexane carboxamide] returned an EC50 of 268 nM.

`COc1cc(-c2cccc(N(CC34CCC(c5nc(C6CC6)no5)(CC3)CC4)C(=O)C3CCCCC3)c2)ccn1` [Example 75, N-((4-(3-cyclopropyl-1,2,4-oxadiazol-5-yl)bicyclo[2.2.2]octan-1-yl)methyl)-N-(3-(2-methoxypyridin-4-yl)phenyl)cyclohexane carboxamide] gave an EC50 of 129 nM. This EC50 is about 2.1-fold lower than that of the molecule before.

For `CC(C)(O)c1nc(-c2cccc(N(CC34CCC(c5nc(C6CC6)no5)(CC3)CC4)C(=O)C3CCCCC3)c2)cs1` [Example 32, N-((4-(3-cyclopropyl-1,2,4-oxadiazol-5-yl)bicyclo[2.2.2]octan-1-yl)methyl)-N-(3-(2-(2-hydroxypropan-2-yl)thiazol-4-yl)phenyl)cyclohexanecarboxamide], the EC50 came out at 320 nM. This EC50 lies about 2.5-fold higher than the previous one.

With `COc1nccc(-c2cccc(N(CC34CCC(c5nc(C6CC6)no5)(CC3)CC4)C(=O)C3CCC(F)(F)CC3)c2)n1` [Example 85, N-((4-(3-cyclopropyl-1,2,4-oxadiazol-5-yl)bicyclo[2.2.2]octan-1-yl)methyl)-4,4-difluoro-N-(3-(2-methoxypyrimidin-4-yl)phenyl)cyclohexane-1-carboxamide], it took 787 nM to reach a half-maximal effect (EC50).

As for `Cn1nc(-c2cccc(N(CC34CCC(c5nc(C6CC6)no5)(CC3)CC4)C(=O)C3CCOCC3)c2)cc1C1CC1` [Example 50, N-((4-(3-cyclopropyl-1,2,4-oxadiazol-5-yl)bicyclo[2.2.2]octan-1-yl)methyl)-N-(3-(5-cyclopropyl-1-methyl-1H-pyrazol-3-yl)phenyl)tetrahydro-2H-pyran-4-carboxamide], the response was half-maximal at 334 nM (EC50).

`CC1CN(C(=O)N(CC23CCC(c4nc(C5CC5)no4)(CC2)CC3)c2cccc(-c3nc(C4CC4)no3)c2)CC(C)O1` (centres unmarked) [Example 63, N-((4-(3-cyclopropyl-1,2,4-oxadiazol-5-yl)bicyclo[2.2.2]octan-1-yl)methyl)-N-(3-(3-cyclopropyl-1,2,4-oxadiazol-5-yl)phenyl)-2,6-dimethylmorpholine-4-carboxamide] had an EC50 of 1130 nM.

Consider `CCOc1ccc(-c2cc(N(CC34CCC(c5noc(C(C)(F)F)n5)(CC3)CC4)C(=O)C3CCC(O)(C(F)(F)F)CC3)ccc2F)cc1` (single isomer, unassigned) [Example 164, N-((4-(5-(1,1-difluoroethyl)-1,2,4-oxadiazol-3-yl)bicyclo[2.2.2]octan-1-yl)methyl)-N-(4′-ethoxy-6-fluoro-[1,1′-biphenyl]-3-yl)-4-hydroxy-4-(trifluoromethyl)cyclohexane-1-carboxamide], for which it took 271 nM to reach a half-maximal effect (EC50).

With `CC(F)(F)c1nc(C23CCC(CN(C(=O)C4CCC(O)(C(F)(F)F)CC4)c4cccc(-c5cc(C6CC6)on5)c4)(CC2)CC3)no1` (centres unmarked) [Example 158, N-(3-(5-cyclopropylisoxazol-3-yl)phenyl)-N-((4-(5-(1,1-difluoroethyl)-1,2,4-oxadiazol-3-yl)bicyclo[2.2.2]octan-1-yl)methyl)-4-hydroxy-4-(trifluoromethyl)cyclohexane-1-carboxamide], the EC50 was 195 nM. This EC50 and that of the molecule before are within 1.5-fold of each other.

In turn, `O=C(C1CCS(=O)(=O)CC1)N(CC12CCC(c3nc(C4CC4)no3)(CC1)CC2)c1cccc(-c2nc(C3CC3)no2)c1` [Example 18, N-((4-(3-cyclopropyl-1,2,4-oxadiazol-5-yl)bicyclo[2.2.2]octan-1-yl)methyl)-N-(3-(3-cyclopropyl-1,2,4-oxadiazol-5-yl)phenyl)tetrahydro-2H-thiopyran-4-carboxamide 1,1-dioxide] registered an EC50 of 1170 nM.

`CCOc1ccc(-c2cccc(N(CC34CCC(c5noc(C(C)(F)F)n5)(CC3)CC4)C(=O)C3CCC(F)(F)CC3)c2)cc1` [Example 113, N-((4-(5-(1,1-difluoroethyl)-1,2,4-oxadiazol-3-yl)bicyclo[2.2.2]octan-1-yl)methyl)-N-(4′-ethoxy-[1,1′-biphenyl]-3-yl)-4,4-difluorocyclohexane-1-carboxamide] registered an EC50 of 665 nM.

`CC(C)(C)c1noc(C23CCC(CN(C(=O)C4CCOCC4)c4cccc(-c5nc(C6CC6)no5)c4)(CC2)CC3)n1` [Example 69, N-((4-(3-(tert-butyl)-1,2,4-oxadiazol-5-yl)bicyclo[2.2.2]octan-1-yl)methyl)-N-(3-(3-cyclopropyl-1,2,4-oxadiazol-5-yl)phenyl)tetrahydro-2H-pyran-4-carboxamide]: the EC50 came out at 162 nM.

Molecule `O=C(C1CCCCC1)N(CC12CCC(c3nc(C4CC4)no3)(CC1)CC2)c1cccc(-c2nc(C(F)F)co2)c1` [Example 37, N-((4-(3-cyclopropyl-1,2,4-oxadiazol-5-yl)bicyclo[2.2.2]octan-1-yl)methyl)-N-(3-(4-(difluoromethyl)oxazol-2-yl)phenyl)cyclohexanecarboxamide] gave an EC50 of 166 nM. The EC50 values of the last two molecules are within 1.5-fold of each other.

Turning to `COc1cc(-c2cccc(N(CC34CCC(c5nnc(C)s5)(CC3)CC4)C(=O)C3CCC(F)(F)CC3)c2)ccn1` [Example 82, 4,4-difluoro-N-(3-(2-methoxypyridin-4-yl)phenyl)-N-((4-(5-methyl-1,3,4-thiadiazol-2-yl)bicyclo[2.2.2]octan-1-yl)methyl)cyclohexane-1-carboxamide], the EC50 worked out at 4760 nM. This EC50 is about 29-fold higher than that of the molecule before.

As for `COc1ncc(-c2cccc(N(CC34CCC(c5nc(C)no5)(CC3)CC4)C(=O)C3CCCCC3)c2)o1` [Example 6, N-(3-(2-methoxyoxazol-5-yl)phenyl)-N-((4-(3-methyl-1,2,4-oxadiazol-5-yl)bicyclo[2.2.2]octan-1-yl)methyl)cyclohexanecarboxamide], the EC50 turned out to be 118 nM.

`CCOc1ncc(-c2cccc(N(CC34CCC(c5nc(C(C)(C)C)no5)(CC3)CC4)C(=O)c3cc(Cl)cc(Cl)c3)c2)cn1` [Example 125, N-((4-(3-(tert-Butyl)-1,2,4-oxadiazol-5-yl)bicyclo[2.2.2]octan-1-yl)methyl)-3,5-dichloro-N-(3-(2-ethoxypyrimidin-5-yl)phenyl)benzamide] displayed a concentration for a half-maximal effect (EC50) of 726 nM.

As for `O=C(N1CCC(O)CC1)N(CC12CCC(c3nc(C4CC4)no3)(CC1)CC2)c1cccc(-c2nc(C3CC3)no2)c1` [Example 61, N-((4-(3-cyclopropyl-1,2,4-oxadiazol-5-yl)bicyclo[2.2.2]octan-1-yl)methyl)-N-(3-(3-cyclopropyl-1,2,4-oxadiazol-5-yl)phenyl)-4-hydroxypiperidine-1-carboxamide], the midpoint of the response, the EC50, lay at 3670 nM.

Molecule `CC(F)(F)c1nc(C23CCC(CN(C(=O)C4CCOCC4)c4cccc(-c5ccc(OC(F)F)cc5)c4)(CC2)CC3)no1` [Example 109, N-((4-(5-(1,1-difluoroethyl)-1,2,4-oxadiazol-3-yl)bicyclo[2.2.2]octan-1-yl)methyl)-N-(4′-(difluoromethoxy)-[1,1′-biphenyl]-3-yl)tetrahydro-2H-pyran-4-carboxamide] returned an EC50 of 50 nM.

Turning to `Cn1nc(C2CC2)cc1C12CCC(CN(C(=O)C3CCOCC3)c3cccc(-c4cc(C5CC5)on4)c3)(CC1)CC2` [Example 132, N-((4-(3-cyclopropyl-1-methyl-1H-pyrazol-5-yl)bicyclo[2.2.2]octan-1-yl)methyl)-N-(3-(5-cyclopropylisoxazol-3-yl)phenyl)tetrahydro-2H-pyran-4-carboxamide], the half-maximal effective concentration (EC50) is 227 nM.

Regarding `CCOc1cc(-c2cccc(N(CC34CCC(c5nc(C6CC6)no5)(CC3)CC4)C(=O)C3CCCCC3)c2)no1` [Example 27, N-((4-(3-cyclopropyl-1,2,4-oxadiazol-5-yl)bicyclo[2.2.2]octan-1-yl)methyl)-N-(3-(5-ethoxyisoxazol-3-yl)phenyl)cyclohexanecarboxamide], the EC50 was 75 nM.

Molecule `COc1cc(-c2cccc(N(CC34CCC(c5nc(C6CC6)no5)(CC3)CC4)C(=O)C3CCCCC3)c2)no1` [Example 12, N-((4-(3-cyclopropyl-1,2,4-oxadiazol-5-yl)bicyclo[2.2.2]octan-1-yl)methyl)-N-(3-(5-methoxyisoxazol-3-yl)phenyl)cyclohexanecarboxamide] returned a concentration giving a half-maximal response (EC50) of 129 nM.

As usually defined, the EC50 is the concentration that produces a half-maximal response.
